Literature values as cited in patent US8329734B2, “Topical therapy for migraine” (AFGIN Pharma LLC, priority 2009, dated 2012).

Row | Compound | metabolism (in vivo) | oral bioavailability (oral) [%] | crossing of intact blood-brain barrier (in vivo)
1 | CN(C)CCc1c[nH]c2ccc(Cn3cncn3)cc12 [rizatriptan] | metabolized by the MAO system |  | 
2 | CNS(=O)(=O)Cc1ccc2[nH]cc(CCN(C)C)c2c1 [Sumatriptan, 3-(2-(dimethylamino)ethyl)-N-methyl-1H-indole-5-methanesulfonamide] | metabolized by the MAO system |  | 
3 | CNS(=O)(=O)CCc1ccc2[nH]cc(C3CCN(C)CC3)c2c1 [naratriptan] |  | ~70 | 
4 | CN(C)CCc1c[nH]c2ccc(C[C@H]3COC(=O)N3)cc12 [zolmitriptan] | metabolized by the MAO system |  | does cross an intact blood-brain barrier
